Measurements published in the supplement of paper PMC11208160.

Assay: recombinant UMI read abundance after kanamycin selection (control-corrected) (log10(CPM+1)); higher = more efficient recombination; extreme values may be limits of the assay; sequences stand for … in AGTGCAGAGAAAATCGGCCAGTTTTCTCTGCCTGCAGTCCGCATGCCGTGGGACCCCTTGGGTTCTAACCTGTTGCCTAGATTTATGCAGCGGACTGCCTTTCTCCCAAAGTGATAAACCGG…AGGTTGGTTTCACT; site = the 11-nt donor
Summary of the method: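 Values, expressed as log10(CPM+1), derive from recombinant UMI counts converted to CPM, averaged across replicates and scaled by control-derived factors. Plating was with IPTG (0.07 mM) plus kanamycin or unselected, two replicates each. The screen pooled donor and donor-binding-loop pairs for the IS621 bridge recombinase in Escherichia coli.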
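Further: IS621 bridge recombinase in Escherichia coli cells against a fixed T5 target plasmid.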

Sequence	recombinant UMI read abundance (log10)
TCGTTGTCATGGACCGGTTTTCCCGGTAATCCGTATTTGTC (site TCGTTGTCTGA)	0.41
TCGTTTACATGGACCGGTTTTCCCGGTAATCCGTATTTGCT (site ACGTTTACTAG)	0
TCGTTTACATGGACCGGTTTTCCCGGTAATCCGTATTTGCT (site CCGTTTACTAG)	0
TCGTTTACATGGACCGGTTTTCCCGGTAATCCGTATTTGCT (site GCGTTTACTAG)	0
TCGTTTACATGGACCGGTTTTCCCGGTAATCCGTATTTGCT (site TCGTTTACTAG)	1.68
TCTAACACATGGACCGGTTTTCCCGGTAATCCGTATTTGTC (site TCTAACACTGA)	0
TCTAATACATGGACCGGTTTTCCCGGTAATCCGTATTTGGC (site ACTAATACTGC)	0
TCTAATACATGGACCGGTTTTCCCGGTAATCCGTATTTGGC (site CCTAATACTGC)	0
TCTAATACATGGACCGGTTTTCCCGGTAATCCGTATTTGGC (site GCTAATACTGC)	0
TCTAATACATGGACCGGTTTTCCCGGTAATCCGTATTTGGC (site TCTAATACTGC)	0
TCTAATACATGGACCGGTTTTCCCGGTAATCCGTATTTGGT (site TCTAATACTAC)	0.0331
TCTAATTCATGGACCGGTTTTCCCGGTAATCCGTATTTGCC (site TCAAATTCTGG)	0
TCTAATTCATGGACCGGTTTTCCCGGTAATCCGTATTTGCC (site TCCAATTCTGG)	0
TCTAATTCATGGACCGGTTTTCCCGGTAATCCGTATTTGCC (site TCGAATTCTGG)	0
TCTAATTCATGGACCGGTTTTCCCGGTAATCCGTATTTGCC (site TCTAATTCTGG)	0
TCTACCGCATGGACCGGTTTTCCCGGTAATCCGTATTTGCG (site TCAACCGCTCG)	0.00715
TCTACCGCATGGACCGGTTTTCCCGGTAATCCGTATTTGCG (site TCCACCGCTCG)	0.0035
TCTACCGCATGGACCGGTTTTCCCGGTAATCCGTATTTGCG (site TCGACCGCTCG)	0.0889
TCTACCGCATGGACCGGTTTTCCCGGTAATCCGTATTTGCG (site TCTACCGCTCG)	0.0133

Sequence	recombinant UMI read abundance (log10)
TCTAGAACATGGACCGGTTTTCCCGGTAATCCGTATTTGTC (site TCTAGAACTGA)	0
TCTAGGCCATGGACCGGTTTTCCCGGTAATCCGTATTTGGA (site TCTAGGCCTTC)	0.0125
TCTAGTGCATGGACCGGTTTTCCCGGTAATCCGTATTTGGT (site ACTAGTGCTAC)	0.0111
TCTAGTGCATGGACCGGTTTTCCCGGTAATCCGTATTTGGT (site CCTAGTGCTAC)	0.229
TCTAGTGCATGGACCGGTTTTCCCGGTAATCCGTATTTGGT (site GCTAGTGCTAC)	0
TCTAGTGCATGGACCGGTTTTCCCGGTAATCCGTATTTGGT (site TCTAGTGCTAC)	0.0256
TCTATAACATGGACCGGTTTTCCCGGTAATCCGTATTTGGG (site TCTATAACTCC)	0.0262
TCTATAGCATGGACCGGTTTTCCCGGTAATCCGTATTTGAC (site TCTATAGCTGT)	0
TCTGAAGCATGGACCGGTTTTCCCGGTAATCCGTATTTGGT (site TCTGAAGCTAC)	0.00288
TCTGAATCATGGACCGGTTTTCCCGGTAATCCGTATTTGAC (site TCTGAATCTGT)	0
TCTGCGGCATGGACCGGTTTTCCCGGTAATCCGTATTTGAT (site TCTGCGGCTAT)	0.0332
TCTGCGGCATGGACCGGTTTTCCCGGTAATCCGTATTTGTT (site TCTGCGGCTAA)	0.0132
TCTGTTCCATGGACCGGTTTTCCCGGTAATCCGTATTTGAG (site TCTGTTCCTCT)	0.0103
TCTTAAACATGGACCGGTTTTCCCGGTAATCCGTATTTGCA (site TCTTAAACTTG)	0
TCTTACACATGGACCGGTTTTCCCGGTAATCCGTATTTGCC (site TCTTACACTGG)	0.565
TCTTCAGCATGGACCGGTTTTCCCGGTAATCCGTATTTGTG (site TCTTCAGCTCA)	0.0132
TCTTCATCATGGACCGGTTTTCCCGGTAATCCGTATTTGTA (site TCTTCATCTTA)	0.00251
TCTTTCTCATGGACCGGTTTTCCCGGTAATCCGTATTTGCT (site TCTTTCTCTAG)	0
